For two compounds, Ki results are on record in BindingDB's records for doi:10.1021/jm00062a001 (Upjohn Laboratories, 1993).

Experiment [1] can be described thus: Binding affinity against 5-hydroxytryptamine 1A receptor from bovine hippocampus, used [3H]8-OH-DPAT as radioligand.
Experiment [2] has as its target 5-hydroxytryptamine receptor 1A (Bos taurus). The description is as above.

pKi: −log10 of the molar value.

With `CCCN1CC[C@H]2c3c(cccc3OC)CC[C@H]21` [(3aS,9bR) 9-Methoxy-3-propyl-2,3,3a,4,5,9b-hexahydro-1H-benzo[e]indole], the pKi in experiment [1] is 8.36. `Cc1[nH]c2cccc3c2c1C[C@@H]1C3C[C@H](NC(=O)C(C)(C)C)CN1C` (some centres not stated) [SDZ-208-911] showed a negative logarithm of the Ki (pKi) in experiment [2] of 7.72.

The pKi is the Ki on a negative log10 scale, so that one unit is a factor of ten. Higher therefore signals a low Ki.
